Experiments:
[1] = solubility in organic solvents relative to compound of formula I; type: physicochemical
Description: In Scheme III above, the compound of formula I may be contaminated with achiral dimer, (methylsulfonyl){2-[4-(4-{2-[(methylsulfonyl)amino]ethyl}phenyl)phenyl]ethyl}amine and chiral dimer, ((2R)-2-{4-[4-((1R)-1-methyl-2-{[(methylethyl)sulfonyl]amino}ethyl)phenyl]phenyl}propyl)[(methylethyl)sulfonyl]amine. […] However, the above achiral dimer is less soluble in organic solvents than the compound of formula I therefore, generally resisted removal from the compound of formula I by recrystallization.

water solubility = type: physicochemical

| SMILES | solubility in organic solvents compared with the compound of formula I [1] | water solubility (water solubility) |
| --- | --- | --- |
| CS(=O)(=O)NCCc1ccc(-c2ccc(CCNS(C)(=O)=O)cc2)cc1 [achiral dimer, (methylsulfonyl){2-[4-(4-{2-[(methylsulfonyl)amino]ethyl}phenyl)phenyl]ethyl}amine] | less soluble |  |
| CC(C)S(=O)(=O)NC[C@H](C)c1ccc(-c2ccc(CCNS(C)(=O)=O)cc2)cc1 [compound of formula I, {(2R)-2-[4-(4-{2-[(methylsulfonyl)amino]ethyl}phenyl)phenyl]propyl}[(methylethyl)sulfonyl]amine] |  | poor |
| CC(C)S(=O)(=O)NC[C@H](C)c1ccc(-c2ccc([C@@H](C)CNS(=O)(=O)C(C)C)cc2)cc1 [chiral dimer, ((2R)-2-{4-[4-((1R)-1-methyl-2-{[(methylethyl)sulfonyl]amino}ethyl)phenyl]phenyl}propyl)[(methylethyl)sulfonyl]amine] | more soluble |  |
